In patent publication US20100137305A1, “AMINOPYRIMIDINES USEFUL AS KINASE INHIBITORS” (VERTEX PHARMACEUTICALS INCORPORATED, priority 2008, published 2010):
Where two headings read alike, the source gives them in different places.

Tests used:
[1] = target: T1, Aurora-2 (Aurora A) (Homo sapiens, UniProt O14965); assay: Aurora-2 (Aurora A) Inhibition Assay, coupled enzyme assay; type: biochemical; conditions: 400 μM ATP, 30° C.; read-out: Aurora A kinase activity Ki
T1 sequence (O14965 1-403): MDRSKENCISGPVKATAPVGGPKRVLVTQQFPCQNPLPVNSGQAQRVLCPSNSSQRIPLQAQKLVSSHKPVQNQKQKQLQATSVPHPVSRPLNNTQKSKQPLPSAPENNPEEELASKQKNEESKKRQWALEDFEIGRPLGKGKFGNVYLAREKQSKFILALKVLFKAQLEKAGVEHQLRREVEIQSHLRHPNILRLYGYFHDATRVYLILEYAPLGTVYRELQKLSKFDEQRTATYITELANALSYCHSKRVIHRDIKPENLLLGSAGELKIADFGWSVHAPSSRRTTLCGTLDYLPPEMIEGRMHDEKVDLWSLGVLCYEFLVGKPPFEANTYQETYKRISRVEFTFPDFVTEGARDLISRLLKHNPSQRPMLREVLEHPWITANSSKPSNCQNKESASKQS
Procedure: Compounds were screened for their ability to inhibit Aurora-2 using a standard coupled enzyme assay (Fox et al., Protein Sci., (1998) 7, 2249). Assays were carried out in a mixture of 100 mM Hepes (pH7.5), 10 mM MgCl2, 1 mM DTT, 25 mM NaCl, 2.5 mM phosphoenolpyruvate, 300 μM NADH, 30 μg/ml pyruvate kinase and 10 μg/ml lactate dehydrogenase. Final substrate concentrations in the assay were 400 μM ATP (Sigma Chemicals) and 570 μM peptide (Kemptide, American Peptide, Sunnyvale, Calif.). Assays were carried out at 30° C. and in the presence of 40 nM Aurora-2.
An assay stock buffer solution was prepared containing all of the reagents listed above, with the exception of Aurora-2 and the test compound of interest. 55 μl of the stock solution was placed in a 96 well plate followed by addition of 2 μl of DMSO stock containing serial dilutions of the test compound (typically starting from a final concentration of 7.5 μM). The plate was preincubated for 10 minutes at 30° C. and the reaction initiated by addition of 10 μl of Aurora-2. Initial reaction rates were determined with a Molecular Devices SpectraMax Plus plate reader over a 10 minute time course. IC50 and Ki data were calculated from non-linear regression analysis using the Prism software package (GraphPad Prism version 3.0cx for Macintosh, GraphPad Software, San Diego Calif., USA).

[2] = target: Aurora-1 (Aurora B) (Homo sapiens, UniProt Q96GD4); assay: Aurora-1 (Aurora B) Inhibition Assay (radiometric); type: biochemical; conditions: 800 μM ATP; read-out: Aurora B kinase activity Ki
Sequence of Aurora-1 (Aurora B) (Q96GD4 whole entry): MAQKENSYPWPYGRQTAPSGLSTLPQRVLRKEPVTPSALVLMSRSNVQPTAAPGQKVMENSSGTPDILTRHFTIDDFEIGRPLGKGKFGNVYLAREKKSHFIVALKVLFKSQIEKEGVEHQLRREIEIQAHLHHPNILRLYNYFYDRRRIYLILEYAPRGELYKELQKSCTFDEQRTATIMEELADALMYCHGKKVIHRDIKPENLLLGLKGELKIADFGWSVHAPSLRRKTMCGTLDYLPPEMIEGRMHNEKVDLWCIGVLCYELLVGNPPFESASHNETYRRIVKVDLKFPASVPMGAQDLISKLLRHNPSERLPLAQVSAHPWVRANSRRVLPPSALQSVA
Procedure: An assay buffer solution was prepared which consisted of 25 mM HEPES (pH 7.5), 10 mM MgCl2, 0.1% BSA and 10% glycerol. A 22 nM Aurora-B solution, also containing 1.7 mM DTT and 1.5 mM Kemptide (LRRASLG), was prepared in assay buffer. To 22 μL of the Aurora-B solution, in a 96-well plate, was added 2 μl of a compound stock solution in DMSO and the mixture allowed to equilibrate for 10 minutes at 25° C. The enzyme reaction was initiated by the addition of 16 μl stock [γ-^33P]-ATP Pi-ATP solution (˜20 nCi/μL) prepared in assay buffer, to a final assay concentration of 800 μM. The reaction was stopped after 3 hours by the addition of 16 μL 500 mM phosphoric acid and the levels of ^33P incorporation into the peptide substrate were determined by the following method.
A phosphocellulose 96-well plate (Millipore, Cat no. MAPHNOB50) was pre-treated with 100 μL of a 100 mM phosphoric acid prior to the addition of the enzyme reaction mixture (40 μL). The solution was left to soak on to the phosphocellulose membrane for 30 minutes and the plate subsequently washed four times with 200 μL of a 100 mM phosphoric acid. To each well of the dry plate was added 30 μL of Optiphase ‘SuperMix’ liquid scintillation cocktail (Perkin Elmer) prior to scintillation counting (1450 Microbeta Liquid Scintillation Counter, Wallac). Levels of non-enzyme catalyzed background radioactivity were determined by adding 16 μL of the 500 mM phosphoric acid to control wells, containing all assay components (which acts to denature the enzyme), prior to the addition of the [γ-^33P]-ATP solution. Levels of enzyme catalyzed ^33P incorporation were calculated by subtracting mean background counts from those measured at each inhibitor concentration. For each Ki determination 8 data points, typically covering the concentration range 0-10 μM compound, were obtained in duplicate (DMSO stocks were prepared from an initial compound stock of 10 mM with subsequent 1:2.5 serial dilutions). Ki values were calculated from initial rate data by non-linear regression using the Prism software package (Prism 3.0, Graphpad Software, San Diego, Calif.).

[3] = test system: Colo205 cells; assay: Analysis of Cell Proliferation, 3H thymidine incorporation; type: cell-based; conditions: Homo sapiens
Procedure: Compounds were screened for their ability to inhibit cell proliferation using Colo205 cells obtained from ECACC and using the assay shown below.
Colo205 cells were seeded in 96 well plates and serially diluted compound was added to the wells in duplicate. Control groups included untreated cells, the compound diluent (0.1% DMSO alone) and culture medium without cells. The cells were then incubated for 72 or 96 hrs at 37C in an atmosphere of 5% CO2/95% humidity.
To measure proliferation, 3 h prior to the end of the experiment 0.5 μCi of 3H thymidine was added to each well. Cells were then harvested and the incorporated radioactivity counted on a Wallac microplate beta-counter. Dose response curves were calculated using either Prism 3.0 (GraphPad) or SoftMax Pro 4.3.1 LS (Molecular Devices) software.

[4] = COLO 205, 96 h, 96 hours, read-out: IC50 cell proliferation after 96 hours
[5] = COLO 205, 72 h, 72 hours, read-out: IC50 cell proliferation after 72 hours

CCC(=O)Nc1ccc(Sc2nc(Nc3cc(C)n[nH]3)cc(N3CC[C@@H](NC(C)C)C3)n2)cc1 [Compound I-1]
Ki [1]: 10 to 50 nM

CCC(=O)Nc1ccc(Sc2nc(Nc3cc(C)n[nH]3)cc(N3CCC(O)(CC(C)(C)C)C3)n2)cc1 (centres unmarked) [Compound I-2]
Ki [1]: ≤ 10 nM

CCC(=O)Nc1ccc(Sc2nc(Nc3cc(C)n[nH]3)cc(N3CCC(N4CCCC4(C)C)C3)n2)cc1 (centres unmarked) [Compound I-3]
Ki [1]: ≤ 10 nM

Cc1cnc(Nc2cc(N3CC[C@H](OC(C)C)C3)nc(Sc3ccc(NC(=O)C4CC4)cc3)n2)s1 [Compound I-5]
Ki [1]: ≤ 10 nM | Ki [2]: 10 to 50 nM

Cc1cnc(Nc2cc(N3CC[C@@H](O)C3)nc(Sc3ccc(NC(=O)C4CC4)cc3)n2)s1 [Compound I-6]
Ki [1]: ≤ 10 nM | Ki [2]: 10 to 50 nM

Cc1cnc(Nc2cc(N3CCC[C@H](N(C)C)C3)nc(Sc3ccc(NC(=O)C4CC4)cc3)n2)s1 [Compound I-8]
Ki [1]: 10 to 50 nM | IC50 [3, 4]: 50 to 200 nM

CCC(=O)Nc1ccc(Sc2nc(Nc3cc(C)n[nH]3)cc(N3CC[C@@H](NC)C3)n2)cc1 [Compound I-9]
Ki [1]: ≤ 10 nM | Ki [2]: 10 to 50 nM | IC50 [3, 4]: 50 to 200 nM

CCC(=O)Nc1ccc(Sc2nc(Nc3cc(C)n[nH]3)cc(N3CCC(O)(C(C)(C)C)C3)n2)cc1 (centres unmarked) [Compound I-10]
Ki [1]: ≤ 10 nM | IC50 [3, 4]: 50 to 200 nM

CCC(=O)Nc1ccc(Sc2nc(Nc3cc(C)n[nH]3)cc(N3CCC(C)(O)C3)n2)cc1 (centres unmarked) [Compound I-11]
Ki [1]: ≤ 10 nM | Ki [2]: 10 to 50 nM | IC50 [3, 4]: 50 to 200 nM

Cc1cnc(Nc2cc(N3CCC[C@@H](N(C)C)C3)nc(Sc3ccc(NC(=O)C4CC4)cc3)n2)s1 [Compound I-13]
Ki [1]: 10 to 50 nM | IC50 [3, 4]: 50 to 200 nM

CO[C@H]1CCN(c2cc(Nc3ncc(C)s3)nc(Sc3ccc(NC(=O)C4CC4)cc3)n2)C1 [Compound I-14]
Ki [1]: ≤ 10 nM | Ki [2]: 10 to 50 nM | IC50 [3, 4]: 50 to 200 nM

CCC(=O)Nc1ccc(Sc2nc(Nc3cc(C)[nH]n3)cc(N3CCC4(CC3)OCCO4)n2)cc1 [Compound I-15]
Ki [1]: ≤ 10 nM | Ki [2]: 10 to 50 nM | IC50 [3, 4]: 50 to 200 nM

CCC(=O)Nc1ccc(Sc2nc(Nc3cc(C)n[nH]3)cc(N3CCC(C#N)CC3)n2)cc1 [Compound I-16]
Ki [1]: ≤ 10 nM | Ki [2]: 10 to 50 nM | IC50 [3, 4]: 50 to 200 nM

CCC(=O)Nc1ccc(Sc2nc(Nc3cc(C)[nH]n3)cc(N3CCC(=O)CC3)n2)cc1 [Compound I-17]
Ki [1]: ≤ 10 nM | Ki [2]: 10 to 50 nM | IC50 [3, 4]: 50 to 200 nM

CCC(=O)Nc1ccc(Sc2nc(Nc3cc(C)n[nH]3)cc(N3CC4CCCNC4C3)n2)cc1 (centres unmarked) [Compound I-19]
Ki [1]: ≤ 10 nM | IC50 [3, 4]: 50 to 200 nM

CCC(=O)Nc1ccc(Sc2nc(Nc3cc(C4CC4)n[nH]3)cc(N3CCC(F)C3)n2)cc1 (centres unmarked) [Compound I-20]
Ki [1]: ≤ 10 nM | Ki [2]: ≤ 10 nM | IC50 [3, 4]: 50 to 200 nM

CCC(=O)Nc1ccc(Sc2nc(Nc3cc(C)n[nH]3)cc(N3CCC(C)(O)CC3)n2)cc1 [Compound I-21]
Ki [1]: ≤ 10 nM | Ki [2]: 10 to 50 nM | IC50 [3, 4]: 50 to 200 nM

CCC(=O)Nc1ccc(Sc2nc(Nc3cc(C)n[nH]3)cc(N3CC[C@H](NC)C3)n2)cc1 [Compound I-22]
Ki [1]: ≤ 10 nM | Ki [2]: 10 to 50 nM | IC50 [3, 4]: 50 to 200 nM

CCC(=O)Nc1ccc(Sc2nc(Nc3cc(C)n[nH]3)cc(N3CCC(C(C)(C)C)CC3)n2)cc1 [Compound I-23]
Ki [1]: ≤ 10 nM | IC50 [3, 4]: 50 to 200 nM

CN[C@H]1CCCN(c2cc(Nc3ncc(C)s3)nc(Sc3ccc(NC(=O)C4CC4)cc3)n2)C1 [Compound I-25]
Ki [1]: ≤ 10 nM | IC50 [3, 4]: 50 to 200 nM

Cc1cc(Nc2cc(N3CCCC(F)(F)C3)nc(Sc3ccc(NC(=O)CC(F)(F)F)cc3)n2)[nH]n1 [Compound I-26]
Ki [1]: ≤ 10 nM | Ki [2]: 10 to 50 nM | IC50 [3, 5]: 25 to 125 nM | IC50 [3, 4]: 50 to 200 nM

CCC(=O)Nc1ccc(Sc2nc(Nc3cc(C)[nH]n3)cc(N3CC[C@H](NC(C)C)C3)n2)cc1 [Compound I-28]
Ki [1]: 10 to 50 nM | IC50 [3, 4]: 50 to 200 nM

Cc1cnc(Nc2cc(N3CC[C@H](N(C)C)C3)nc(Sc3ccc(NC(=O)C4CC4)cc3)n2)s1 [Compound I-30]
Ki [1]: ≤ 10 nM | IC50 [3, 4]: 50 to 200 nM

Cc1cc(Nc2cc(N3CCC4(CC3)CCN(C(C)C)C4)nc(Sc3ccc(NC(=O)C4CC4)cc3)n2)[nH]n1 [Compound I-31]
Ki [1]: ≤ 10 nM | Ki [2]: 10 to 50 nM | IC50 [3, 4]: 50 to 200 nM

CCC(=O)Nc1ccc(Sc2nc(Nc3cc(C)n[nH]3)cc(N3CCC(C)(N4CCCC4)CC3)n2)cc1 [Compound I-34]
Ki [1]: ≤ 10 nM | IC50 [3, 4]: 50 to 200 nM

CN[C@@H]1CCN(c2cc(Nc3ncc(C)s3)nc(Sc3ccc(NC(=O)C4CC4)cc3)n2)C1 [Compound I-36]
Ki [1]: ≤ 10 nM | IC50 [3, 4]: ≤ 50 nM

Cc1cnc(Nc2cc(N3CC[C@@H](N4CCCC4)C3)nc(Sc3ccc(NC(=O)C4CC4)cc3)n2)s1 [Compound I-37]
Ki [1]: ≤ 10 nM | IC50 [3, 4]: ≤ 50 nM

CCC(=O)Nc1ccc(Sc2nc(Nc3cc(C)n[nH]3)cc(N3CCC(N4CCCC4)C3)n2)cc1 (centres unmarked) [Compound I-48]
Ki [1]: ≤ 10 nM | IC50 [3, 4]: ≤ 50 nM

CCC(=O)Nc1ccc(Sc2nc(Nc3cc(C)n[nH]3)cc(N3CC[C@H](N(C)CC)C3)n2)cc1 [Compound I-50]
Ki [1]: ≤ 10 nM | IC50 [3, 4]: ≤ 50 nM

Cc1cc(Nc2cc(N3CCC(N4CCCC4)CC3)nc(Sc3ccc(NC(=O)CC4CC4)cc3)n2)n[nH]1 [Compound I-83]
Ki [1]: ≤ 10 nM | IC50 [3, 5]: 25 to 125 nM

CCC(=O)Nc1ccc(Sc2nc(Nc3cc(C)n[nH]3)cc(N3CCC(OC(C)(C)C)CC3)n2)cc1 [Compound I-85]
Ki [1]: ≤ 10 nM | Ki [2]: 10 to 50 nM
